The results in this text go back to patent US20060286105A1, “Tgf-beta antagonists combined with renin-angiotensin-aldosteron-system antagonists for treating renal insufficiency” (priority 2003, published 2006).

Assay [1] relates to diabetic rats. The assay is described as follows: Urinary albumin excretion, late phase treatment (Example 9). Format: in vivo, rat. As to conditions: weeks 52 to 61, at 61 weeks, mean ± SE. As to the method:
Five normal rats were used as controls. Systolic blood pressure was measured every two months after diabetes induction. […] All measurements and data analysis were performed as described in Example 8.

For assay [2], the system named is diabetic rats. The assay is described as follows: Serum creatinine, late phase treatment (Example 9). Format: in vivo, rat. The note with it: weeks 52 to 61, 61 weeks, mean ± SE. How it is done: Serum creatinine was measured at the end of the study by autoanalyzer (CX5 Beckman). […] Five normal rats were used as controls. Systolic blood pressure was measured every two months after diabetes induction. […] All measurements and data analysis were performed as described in Example 8.

The subject of assay [3] is diabetic rats. As to the kind of experiment: Systolic blood pressure by tail cuff, early phase treatment (Example 8). Format: in vivo, rat. The note with it: mean ± SE. How it is done:
(§1) Male Sprague-Dawley rats with initial body weight of 250-275 g were studied. All animals were allowed free access to standard diet and tap water. Diabetes was induced by a single intravenous injection of streptozotocin (60 mg/kg body weight). […] Blood glucose levels were monitored at least once a week in all diabetic rats and occasionally in control animals for comparison. Diabetic rats were divided into 3 groups (n=6 each): group 1 received a control antibody, 13C4; groups 2 and 3 received 1D11 (0.5 mg/kg i.p. three times a week) or enalapril (15 mg/l in the drinking water), respectively from 27 to 52 weeks; group 4 was normal rats. Systolic blood pressure was measured every two months after diabetic induction by the tail cuff method. The statistical analysis was performed using the nonparametric Kruskal-Wallis test for multiple comparisons.

In assay [4] the test system is diabetic rats. The assay is described as follows: Proteinuria, early phase treatment of diabetic nephropathy (Example 8). Format: in vivo, rat. The note with it: therapy weeks 27 to 52 after STZ, 1D11 0.5 mg/kg i.p. 3x/week, enalapril 15 mg/l drinking water, FIG. 7. How it is done:
Male Sprague-Dawley rats with initial body weight of 250-275 g were studied. All animals were allowed free access to standard diet and tap water. Diabetes was induced by a single intravenous injection of streptozotocin (60 mg/kg body weight). The presence of diabetes was confirmed 2 days later by the measurement of the tail blood glucose level with a reflectance meter. Diabetic rats received daily evening injections of insulin in doses individually adjusted to maintain a blood glucose level between 200 and 450 mg/dl. Blood glucose levels were monitored at least once a week in all diabetic rats and occasionally in control animals for comparison.
Diabetic rats were divided into 3 groups (n=6 each): group 1 received a control antibody, 13C4; groups 2 and 3 received 1D11 (0.5 mg/kg i.p. three times a week) or enalapril (15 mg/l in the drinking water), respectively from 27 to 52 weeks; group 4 was normal rats.
(§2) Urinary excretion of proteins was measured in 24 hr urine samples collected in metabolic cages at baseline, 18, 27, 36, 45, and 52 weeks by the modified Coomassie blue G dye-binding assay for proteins.
The statistical analysis was performed using the nonparametric Kruskal-Wallis test for multiple comparisons.

The subject of assay [5] is diabetic rats. As to the kind of experiment: Urinary albumin excretion by ELISA, early phase treatment (Example 8). Format: in vivo, rat. As to conditions: weeks 27 to 52, at 52 weeks, mean ± SE. How it is done: as §1, with “Systolic blood pressure was measured every two months after diabetic induction by the tail cuff method.” left out
Background: ELISA stands for enzyme-linked immunosorbent assay.

In assay [6] the test system is diabetic rats. The assay is described as follows: Serum creatinine, early phase treatment (Example 8). Format: in vivo, rat. As to conditions: weeks 27 to 52, 52 weeks, mean ± SE. As to the method:
Male Sprague-Dawley rats with initial body weight of 250-275 g were studied. All animals were allowed free access to standard diet and tap water. Diabetes was induced by a single intravenous injection of streptozotocin (60 mg/kg body weight). […] Blood glucose levels were monitored at least once a week in all diabetic rats and occasionally in control animals for comparison. […] Serum creatinine was measured at the end of the study by autoanalyzer (CX5 Beckman). The statistical analysis was performed using the nonparametric Kruskal-Wallis test for multiple comparisons.

In assay [7] the test system is diabetic rats. The assay is described as follows: Proteinuria, late phase treatment of diabetic nephropathy (Example 9). As to conditions: therapy weeks 52 to 61 after STZ, 1D11 0.5 mg/kg i.p. 3x/week, enalapril 15 mg/l drinking water, FIG. 8. Format: in vivo, rat. How it is done:
as §2
Diabetic rats were kept as described in Example 8 and were divided into 4 groups (n=5-6 each) and given from 52 to 61 weeks after the diabetis induction the following: the irrelevant antibody 13C4; the anti-TGF-β antibody 1D11 (0.5 mg/kg i.p. three times a week); the ACE inhibitor enalapril (15 mg/l in the drinking water), or the combination of 1D11 and enalapril. Five normal rats were used as controls. Systolic blood pressure was measured every two months after diabetes induction. Urinary excretion of proteins was measured in 24 hour urine samples collected in metabolic cages at baseline, 18, 27, 36, 45, 52, and 61 weeks. All measurements and data analysis were performed as described in Example 8.

Assay [8] concerns diabetic rats. As to the kind of experiment: Renal histology, early phase treatment (Example 8). Format: in vivo, rat. As to conditions: weeks 27 to 52, 52 weeks, mean ± SE. As to the method:
Male Sprague-Dawley rats with initial body weight of 250-275 g were studied. All animals were allowed free access to standard diet and tap water. Diabetes was induced by a single intravenous injection of streptozotocin (60 mg/kg body weight). […] Blood glucose levels were monitored at least once a week in all diabetic rats and occasionally in control animals for comparison. […] Renal morphology was assessed as glomerulosclerosis, interstitial inflammation and tubular damage. Specifically, the removed kidneys were fixed overnight in Dubosq-Brazil, dehydrated in alcohol, and embedded in paraffin. Kidney samples were sectioned at 3-μm intervals, and the sections were stained with Masson's trichrome, hematoxylin and eosin, or periodic-acid Schiff reagent (PAS stain). […] All renal biopsies were analyzed by the same pathologist who was unaware of the nature of the experimental groups. The statistical analysis was performed using the nonparametric Kruskal-Wallis test for multiple comparisons.

In assay [9] the test system is diabetic rats. As to the kind of experiment: Renal histology, late phase treatment (Example 9). Format: in vivo, rat. As to conditions: weeks 52 to 61, 61 weeks, mean ± SE. How it is done:
Renal morphology was assessed as glomerulosclerosis, interstitial inflammation and tubular damage. Specifically, the removed kidneys were fixed overnight in Dubosq-Brazil, dehydrated in alcohol, and embedded in paraffin. Kidney samples were sectioned at 3-μm intervals, and the sections were stained with Masson's trichrome, hematoxylin and eosin, or periodic-acid Schiff reagent (PAS stain). […] All renal biopsies were analyzed by the same pathologist who was unaware of the nature of the experimental groups. […] Five normal rats were used as controls. Systolic blood pressure was measured every two months after diabetes induction. […] All measurements and data analysis were performed as described in Example 8.

Assay [10] deals with diabetic rats. The assay is described as follows: Systolic blood pressure, late phase treatment (Example 9). The note with it: mean ± SE. Format: in vivo, rat. How it is done:
Systolic blood pressure was measured every two months after diabetic induction by the tail cuff method. […] Five normal rats were used as controls. Systolic blood pressure was measured every two months after diabetes induction. […] All measurements and data analysis were performed as described in Example 8.

Assay [11] deals with diabetic rats. The assay is described as follows: Systolic blood pressure by tail plethysmography in diabetic rats (Example 3). Format: in vivo, rat. As to conditions: uninephrectomized STZ-diabetic rats; treated months 4-8; antibody 0.5 mg/kg i.p. 3x/week, lisinopril 12.5 mg/l drinking water; FIG. 2. As to the method: Male Sprague-Dawley rats with initial body weights of 250 to 300 g were used in this study. Animal care and treatment were conducted in accordance with the U.S. […] All animals were housed in a room in which the temperature was kept constant on a 12-hour dark/12-hour light cycle and allowed free access to standard diet containing 20% protein by weight and tap water. The animals were subjected to unilateral nephrectomy under anaesthesia one week prior to the induction of diabetes to accelerate the onset of renal disease. The animals were rendered diabetic by a single intravenous (i.v.) injection of streptozotocin (STZ, Zanosar, Upjohn, Kalamazoo, Mich.; 60 mg/kg body weight). Food and water consumption, weight gain and the blood glucose levels were monitored to determine the degree of diabetes. The blood was obtained from the tip of the tails and analyzed by a modified glucose dehydrogenase method. […] Four months, after the induction of diabetes, animals were divided into seven groups of eight (unless otherwise indicated), which were treated for the next four months as follows: Animals were treated as described in Example 1. Systolic blood pressure at the end of the treatment period was recorded by tail plethysmography in conscious rats as described in Pfeffer et al.

The subject of assay [12] is diabetic rats. As to the kind of experiment: Glomerular sclerosis, renal histology in diabetic rats (Example 4). Format: in vivo, rat. As to conditions: uninephrectomized STZ-diabetic rats; treated months 4-8; antibody 0.5 mg/kg i.p. 3x/week, lisinopril 12.5 mg/l drinking water; FIG. 3. As to the method:
Animals were treated as described in Example 1. At the end of the study, rat kidneys were harvested and fixed with 5% buffered formalin solution, embedded in paraffin, sectioned and stained with periodic acid-Schiff (PAS) for light microscopy analyses.
Glomerular diameters were measured and the degree of matrix expansion and glomerular injury was assessed on a minimum of 100 glomeruli/section. The degree of glomerulosclerosis was scored as previously described (Raij et al. (1984) Kidney Int., 26:137-143). The percentage of glomerular sclerosis was determined by an unbiased, trained pathologist who recorded pathologic changes using a 0-4 scale (score of 0 indicates no damage; 1+ indicates changes affecting less than 25% of the samples; 2+ indicates changes affecting 25- 50% of the sample; 3+, changes affecting 50-75% of the sample; 4+ changes affecting 75-100% of the sample).

The target in the next assay is TGF-β. As to the kind of experiment: Antigen affinity and isoform specificity of anti-TGF-β antibodies. Format: binding. From the text:
The epitopes for 1[…] al. (1998) J. Immunol., 142:1536-1541) and CAT192 have been mapped to the C-terminal portion of mature TGF-β.

As to `CCOC(=O)[C@H](CCc1ccccc1)N[C@@H](C)C(=O)N1CCC[C@H]1C(=O)O` [enalapril, 1-[N-[(S)-1-carboxy-3-phenylpropyl]-L-alanyl]-L-proline-1′-ethyl ester], the figures for the Urinary albumin excretion in the assay on diabetic rats [1] and in the assay on diabetic rats [5] were 30.40 ± 15.08 mg/day and 4.70 ± 0.83*°# mg/day, respectively. Also, the results for the Serum creatinine with diabetic rats [2] and in the assay on diabetic rats [6] were 0.56 ± 0.07 mg/dL and 0.49 ± 0.07 mg/dL, respectively. Further, the Systolic blood pressure is on record as 148.33 ± 2.47 mmHg in the assay on diabetic rats [3] (early phase study, week 27, before treatment (baseline of group)); 127.50 ± 2.81**°° mmHg with diabetic rats [3] (early phase treatment from week 27, week 36); 118.33 ± 2.47°° mmHg in the assay with diabetic rats [3] (early phase treatment from week 27, week 45); 117.50 ± 2.14°° mmHg in the assay on diabetic rats [3] (early phase treatment from week 27, week 52); 158.33 ± 2.79 mmHg with diabetic rats [10] (late phase study, week 36, before therapy (given weeks 52 to 61)); 165.00 ± 2.89 mmHg with diabetic rats [10] (late phase study, week 52, start of therapy (given weeks 52 to 61)). Also, the Systolic blood pressure in the assay with diabetic rats [10] (late phase treatment, weeks 52 to 61, week 61) is 135.00 ± 1.58**°° mmHg. Also, the “proteinuria (in words)” value in the assay with diabetic rats [4] and with diabetic rats [7] was “similarly efficacious in reducing proteinuria” throughout. Moreover, the “Interstitial inflammation (score)” value turned out to be 0.33 ± 0.21 score in the assay with diabetic rats [8] (graded 0 to 4+) and 0.60 ± 0.24 score in the assay with diabetic rats [9] (graded 0 to 4+). Besides, the “Tubular damage (score)” value is reported as 0.50 ± 0.22 score with diabetic rats [8] (graded 0 to 4+) and 0.60 ± 0.24 score in the assay with diabetic rats [9] (graded 0 to 4+). Besides, the “Glomeruli with sclerotic changes” value was 1.53 ± 0.32° % in the assay on diabetic rats [8] and 4.60 ± 2.19% with diabetic rats [9].

As to `NCCCC[C@H](N[C@@H](CCc1ccccc1)C(=O)O)C(=O)N1CCC[C@H]1C(=O)O` [lisinopril, 1-[N2-[(S)-1-carboxy-3-phenylpropyl]-L-lysyl]-L-proline], the “systolic blood pressure at end of treatment” value in the assay on diabetic rats [11] was “limited blood pressure increase to a similar extent as 1D11”. In addition, the “percentage of glomeruli with sclerotic changes (in words)” value with diabetic rats [12] was “limited the percentage of glomeruli with sclerosis to a similar degree as 1D 11”.

“CAT192: fully human monoclonal anti-TGF-β1 antibody generated by phage display, described in WO 00/66631”: at TGF-β, the Kd was roughly 8.4 pM and the “TGF-β isoform binding specificity” value is “specifically binds TGF-β only”. The “systolic blood pressure at end of treatment” value with diabetic rats [11] is “displayed an anti-hypertensive effect”.

For orientation: Kd means a measure of binding affinity in units of concentration. The low end stands for higher affinity, the high end for lower affinity.
